Where two headings read alike, the source gives them in different places.
Legend:
Assay type in all cases: biochemical
[1] = target: T1, KRAS G12C (Homo sapiens, UniProt P01116, G12C); test: HTRF nucleotide exchange assay (NEA), KRAS G12C
T1 construct: 4 nM KRAS; aa1-188 containing the G12V, G12C, G12A or G12S amino acid substitution
Procedure: (§1) The capacity of compounds to bind KRAS G12D, other KRAS mutants and wildtype RAS isoforms was quantified using a HTRF nucleotide exchange assay. Recombinant human RAS protein (2 nM; aa1-188 KRAS WT, HRAS WT, NRAS WT, or KRAS containing the containing the G12D, G13D or Q61H amino acid substitutions, or 4 nM KRAS; aa1-188 containing the G12V, G12C, G12A or G12S amino acid substitution, an N-terminal 6×His-tag and leader sequence), and 2 nM Europium-labeled anti-6×His antibody were mixed in assay buffer (10 mM HEPES pH7.3, 150 mM NaCl, 5 mM MgCl2, 0.05% BSA, 0.0025% NP-40 and 100 mM KF) with various concentrations of compound in a 384-well plate and a volume of 5 uL. After a 60-minute incubation at room temperature, 5 ul of 200 nM EDA-GTP-DY647P1 (diluted in assay buffer) was added to the plate. Following 30-minute incubation at room temperature, time-resolved fluorescence was measured on a PerkinElmer Envision plate reader. DMSO (0.3%) and unlabeled […] (1 μM) or equivalent tool compound were used to generate the Max and Min assay signals, respectively. Data was analysed using a four-parameter logistic model to calculate IC50 values, with at least two independent replicates were performed for each compound.

[2] = target: T2, KRAS WT (Homo sapiens, UniProt P01116); test: HTRF nucleotide exchange assay (NEA), KRAS WT
T2 construct: Recombinant human RAS protein (2 nM); aa1-188 KRAS WT
T2 sequence (P01116 1-188 isoform P01116-2): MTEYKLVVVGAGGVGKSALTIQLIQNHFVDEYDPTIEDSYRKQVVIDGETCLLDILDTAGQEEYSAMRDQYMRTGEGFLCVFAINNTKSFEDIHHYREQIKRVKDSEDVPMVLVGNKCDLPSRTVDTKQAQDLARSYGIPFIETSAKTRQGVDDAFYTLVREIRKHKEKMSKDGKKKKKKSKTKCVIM
Procedure: as §1

[3] = target: T3, KRAS G12S (Homo sapiens, UniProt P01116, G12S); test: HTRF nucleotide exchange assay (NEA), KRAS G12S
T3 construct: 4 nM KRAS; aa1-188 containing the G12V, G12C, G12A or G12S amino acid substitution
T3 sequence (P01116 1-188 isoform P01116-2 G12S): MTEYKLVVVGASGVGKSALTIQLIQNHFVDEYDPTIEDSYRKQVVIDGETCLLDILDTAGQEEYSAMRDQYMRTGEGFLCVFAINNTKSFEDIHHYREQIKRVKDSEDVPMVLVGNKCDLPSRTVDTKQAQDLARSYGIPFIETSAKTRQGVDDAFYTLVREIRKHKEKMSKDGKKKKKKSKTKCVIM
Procedure: as §1

[4] = target: T4, KRAS G12A (Homo sapiens, UniProt P01116, G12A); test: HTRF nucleotide exchange assay (NEA), KRAS G12A
T4 construct: 4 nM KRAS; aa1-188 containing the G12V, G12C, G12A or G12S amino acid substitution
T4 sequence (P01116 1-188 isoform P01116-2 G12A): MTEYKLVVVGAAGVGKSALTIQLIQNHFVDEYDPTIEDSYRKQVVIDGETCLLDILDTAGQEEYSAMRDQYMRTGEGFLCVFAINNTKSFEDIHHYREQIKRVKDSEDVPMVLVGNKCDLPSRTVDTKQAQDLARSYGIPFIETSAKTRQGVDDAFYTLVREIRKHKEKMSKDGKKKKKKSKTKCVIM
Procedure: as §1

[5] = target: T5, KRAS G12V (Homo sapiens, UniProt P01116, G12V); test: HTRF nucleotide exchange assay (NEA), KRAS G12V
T5 construct: 4 nM KRAS; aa1-188 containing the G12V, G12C, G12A or G12S amino acid substitution
T5 sequence (P01116 1-188 isoform P01116-2 G12V): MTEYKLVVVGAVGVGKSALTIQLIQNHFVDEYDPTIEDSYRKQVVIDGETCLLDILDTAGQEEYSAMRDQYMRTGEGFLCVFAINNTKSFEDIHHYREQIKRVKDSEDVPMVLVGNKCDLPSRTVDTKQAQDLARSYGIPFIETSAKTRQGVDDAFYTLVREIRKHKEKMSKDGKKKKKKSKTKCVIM
Procedure: as §1

[6] = target: T6, KRAS G12D (Homo sapiens, UniProt P01116, G12D); test: HTRF nucleotide exchange assay (NEA), KRAS G12D; settings: recombinant human KRAS G12D aa1-188, 2 nM; lowest class = % inhibition at 10 μM
T6 construct: Recombinant human RAS protein (2 nM)
T6 sequence (P01116 1-188 isoform P01116-2 G12D): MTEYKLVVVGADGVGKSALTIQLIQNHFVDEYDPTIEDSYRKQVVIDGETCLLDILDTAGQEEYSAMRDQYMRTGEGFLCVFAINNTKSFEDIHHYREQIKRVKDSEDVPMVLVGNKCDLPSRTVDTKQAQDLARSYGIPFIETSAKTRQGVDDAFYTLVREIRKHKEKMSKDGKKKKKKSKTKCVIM
Procedure: as §1

T1 sequence (P01116 1-188 isoform P01116-2 G12C): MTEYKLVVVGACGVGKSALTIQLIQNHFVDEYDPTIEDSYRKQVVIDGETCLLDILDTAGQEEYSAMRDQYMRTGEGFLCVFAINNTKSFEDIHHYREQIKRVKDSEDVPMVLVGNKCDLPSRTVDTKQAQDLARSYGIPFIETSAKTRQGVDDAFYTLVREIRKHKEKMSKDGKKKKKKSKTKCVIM

Row | SMILES | IC50 [1] [µM] | IC50 [2] [µM] | IC50 [3] [µM] | IC50 [4] [µM] | IC50 [5] [µM] | IC50 [6] [µM] | IC50 ([1]; recombinant human KRAS G12C aa1-188, 4 nM, lowest class = % inhibition at 10 μM) [µM] | IC50 ([5]; recombinant human KRAS G12V aa1-188, 4 nM, lowest class = % inhibition at 10 μM) [µM]
1 | C#Cc1c(F)ccc2cc(O)cc(-c3ncc4c(N5CCCNC(=O)C5)nc(OC[C@@]56CCCN5C[C@H](F)C6)nc4c3F)c12 (relative stereo) [Example 88, 4-[7-(8-ethynyl-7-fluoro-3-hydroxy-1-naphthyl)-8-fluoro-2-[[trans-2-fluoro-1,2,3,5,6,7-hexahydropyrrolizin-8-yl]methoxy]pyrido [4,3-d]pyrimidin-4-yl]-1,4-diazepan-2-one] | ≤ 0.01 | ≤ 0.01 | ≤ 0.01 | ≤ 0.01 | ≤ 0.01 | ≤ 0.01 |  | 
2 | CC1CN(c2nc(OCC34CCCN3CCC4)nc3c(F)c(-c4cc(O)cc5ccccc45)ncc23)CCCO1 (centres unmarked) [Example 16, 4-[8-fluoro-2-(1,2,3,5,6,7-hexahydropyrrolizin-8-ylmethoxy)-4-(2-methyl-1,4-oxazepan-4-yl)pyrido[4,3-d]pyrimidin-7-yl]naphthalen-2-ol] | 0.01 to 0.1 | 0.01 to 0.1 | 0.1 to 10 | 0.01 to 0.1 | 0.01 to 0.1 | 0.01 to 0.1 |  | 
3 | OCC1CCN(c2nc(OCC34CCCN3CCC4)nc3c(F)c(-c4cc(O)cc5ccccc45)ncc23)C1 (centres unmarked) [Example 73, 4-[8-fluoro-2-(1,2,3,5,6,7-hexahydropyrrolizin-8-ylmethoxy)-4-[3-(hydroxymethyl)pyrrolidin-1-yl]pyrido[4,3-d]pyrimidin-7-yl]naphthalen-2-ol] | 0.1 to 10 | 0.1 to 10 |  |  | 0.1 to 10 | 0.1 to 10 |  | 
4 | CC(C)(O)C1CCN(c2nc(OCC34CCCN3CCC4)nc3c(F)c(-c4cc(O)cc5ccccc45)ncc23)C1 (centres unmarked) [Example 74, 4-[8-fluoro-2-(1,2,3,5,6,7-hexahydropyrrolizin-8-ylmethoxy)-4-[3-(1-hydroxy-1-methyl-ethyl)pyrrolidin-1-yl]pyrido[4,3-d]pyrimidin-7-yl]naphthalen-2-ol] |  | 0.1 to 10 |  |  |  | > 10 | > 10 | > 10
5 | CN1CCCN(c2nc(OCC34CCCN3CCC4)nc3c(F)c(-c4cc(O)cc5ccccc45)ncc23)CC1=O [Example 75, 4-[8-fluoro-2-(1,2,3,5,6,7-hexahydropyrrolizin-8-ylmethoxy)-7-(3-hydroxy-1-naphthyl)pyrido[4,3-d]pyrimidin-4-yl]-1-methyl-1,4-diazepan-2-one] | 0.1 to 10 | 0.1 to 10 |  |  | 0.1 to 10 | 0.1 to 10 |  | 
6 | O=C1CC2(CCN(c3nc(OCC45CCCN4CCC5)nc4c(F)c(-c5cc(O)cc6ccccc56)ncc34)C2)CN1 (centres unmarked) [Example 76, 2-[8-fluoro-2-(1,2,3,5,6,7-hexahydropyrrolizin-8-ylmethoxy)-7-(3-hydroxy-1-naphthyl)pyrido[4,3-d]pyrimidin-4-yl]-2,7-diazaspiro[4.4] nonan-8-one] | 0.1 to 10 | 0.1 to 10 |  |  | 0.1 to 10 | > 10 |  | 
7 | O=C1NCCC12CCN(c1nc(OCC34CCCN3CCC4)nc3c(F)c(-c4cc(O)cc5ccccc45)ncc13)CC2 [Example 77, 8-[8-fluoro-2-(1,2,3,5,6,7-hexahydropyrrolizin-8-ylmethoxy)-7-(3-hydroxy-1-naphthyl)pyrido[4,3-d]pyrimidin-4-yl]-2,8-diazaspiro[4.5]decan-1-one] | 0.1 to 10 | 0.1 to 10 |  |  | 0.1 to 10 | 0.1 to 10 |  | 
8 | CN1CCN(c2nc(OCC34CCCN3CCC4)nc3c(F)c(-c4cc(O)cc5ccccc45)ncc23)CCC1=O [Example 78, 1-[8-fluoro-2-(1,2,3,5,6,7-hexahydropyrrolizin-8-ylmethoxy)-7-(3-hydroxy-1-naphthyl)pyrido[4,3-d]pyrimidin-4-yl]-4-methyl-1,4-diazepan-5-one] | 0.1 to 10 | 0.1 to 10 |  |  | 0.1 to 10 | 0.1 to 10 |  | 
9 | O=C1NCc2ccc(Nc3nc(OCC45CCCN4CCC5)nc4c(F)c(-c5cc(O)cc6ccccc56)ncc34)cc21 [Example 82, 6-[[8-fluoro-2-(1,2,3,5,6,7-hexahydropyrrolizin-8-ylmethoxy)-7-(3-hydroxy-1-naphthyl)pyrido[4,3-d]pyrimidin-4-yl]amino]isoindolin-1-one] | 0.1 to 10 | 0.1 to 10 |  |  | 0.01 to 0.1 | 0.1 to 10 |  | 
10 | CN(C)CC1(COc2nc(N3CCCOCC3)c3cnc(-c4cc(O)cc5ccccc45)c(F)c3n2)CC1 [Example 96, 4-[2-[[1-[(dimethylamino)methyl]cyclopropyl]methoxy]-8-fluoro-4-(1,4-oxazepan-4-yl)pyrido[4,3-d]pyrimidin-7-yl]naphthalen-2-ol] | 0.01 to 0.1 | 0.01 to 0.1 |  |  | 0.01 to 0.1 | 0.01 to 0.1 |  | 

More lines, now with the values ahead:

Row | IC50 [1] [µM] | IC50 [2] [µM] | IC50 [3] [µM] | IC50 [4] [µM] | IC50 [5] [µM] | IC50 [6] [µM] | IC50 ([1]; recombinant human KRAS G12C aa1-188, 4 nM, lowest class = % inhibition at 10 μM) [µM] | IC50 ([5]; recombinant human KRAS G12V aa1-188, 4 nM, lowest class = % inhibition at 10 μM) [µM] | SMILES
11 | 0.01 to 0.1 | 0.01 to 0.1 | 0.01 to 0.1 | 0.01 to 0.1 | 0.01 to 0.1 | 0.01 to 0.1 |  |  | Oc1cc(-c2ncc3c(N4CCCCCC4)nc(OCC45CCCN4CCC5)nc3c2F)c2ccccc2c1 [Example 17, 4-[4-(azepan-1-yl)-8-fluoro-2-(1,2,3,5,6,7-hexahydropyrrolizin-8-ylmethoxy)pyrido[4,3-d]pyrimidin-7-yl]naphthalen-2-ol]
12 | 0.01 to 0.1 | 0.01 to 0.1 | 0.1 to 10 | 0.01 to 0.1 | 0.01 to 0.1 | 0.01 to 0.1 |  |  | Oc1cc(-c2ncc3c(N4CCC(O)CC4)nc(OCC45CCCN4CCC5)nc3c2F)c2ccccc2c1 [Example 41, 1-[8-fluoro-2-(1,2,3,5,6,7-hexahydropyrrolizin-8-ylmethoxy)-7-(3-hydroxy-1-naphthyl)pyrido[4,3-d]pyrimidin-4-yl]piperidin-4-ol]
13 | 0.1 to 10 | 0.1 to 10 | 0.1 to 10 |  | 0.1 to 10 | 0.1 to 10 |  |  | COCC1(CNc2nc(OCC34CCCN3CCC4)nc3c(F)c(-c4cc(O)cc5ccccc45)ncc23)COC1 [Example 45, 4-[8-fluoro-2-(1,2,3,5,6,7-hexahydropyrrolizin-8-ylmethoxy)-4-[[3-(methoxymethyl)oxetan-3-yl]methylamino]pyrido [4,3-d]pyrimidin-7-yl]naphthalen-2-ol]
14 |  | 0.1 to 10 | 0.1 to 10 |  |  | 0.1 to 10 |  |  | CS(=O)(=O)CCCNc1nc(OCC23CCCN2CCC3)nc2c(F)c(-c3cc(O)cc4ccccc34)ncc12 [Example 46, 4-[8-fluoro-2-(1,2,3,5,6,7-hexahydropyrrolizin-8-ylmethoxy)-4-(3-methylsulfonylpropylamino)pyrido[4,3-d]pyrimidin-7-yl]naphthalen-2-ol]
15 | 0.01 to 0.1 | 0.01 to 0.1 | 0.1 to 10 | 0.01 to 0.1 | 0.01 to 0.1 | 0.1 to 10 |  |  | Oc1cc(-c2ncc3c(N4CC5CCC(C5)C4)nc(OCC45CCCN4CCC5)nc3c2F)c2ccccc2c1 [Example 47, 4-[4-(3-azabicyclo[3.2.1]octan-3-yl)-8-fluoro-2-(1,2,3,5,6,7-hexahydropyrrolizin-8-ylmethoxy)pyrido [4,3-d]pyrimidin-7-yl]naphthalen-2-ol]
16 | 0.1 to 10 | 0.1 to 10 |  |  | 0.1 to 10 | 0.1 to 10 |  |  | O=C1CCN(c2nc(OCC34CCCN3CCC4)nc3c(F)c(-c4cc(O)cc5ccccc45)ncc23)CCO1 [Example 72, 4-[8-fluoro-2-(1,2,3,5,6,7-hexahydropyrrolizin-8-ylmethoxy)-7-(3-hydroxy-1-naphthyl)pyrido[4,3-d]pyrimidin-4-yl]-1,4-oxazepan-7-one]
17 | 0.01 to 0.1 | 0.01 to 0.1 |  |  | 0.01 to 0.1 | 0.01 to 0.1 |  |  | OCC1CCN(c2nc(OCC34CCCN3CCC4)nc3c(F)c(-c4cc(O)cc5ccccc45)ncc23)CC1 [Example 79, 4-[8-fluoro-2-(1,2,3,5,6,7-hexahydropyrrolizin-8-ylmethoxy)-4-[4-(hydroxymethyl)-1-piperidyl]pyrido[4,3-d]pyrimidin-7-yl]naphthalen-2-ol]
18 | 0.1 to 10 | 0.1 to 10 |  |  | 0.01 to 0.1 | 0.1 to 10 |  |  | O=C1CC2(CCN(c3nc(OCC45CCCN4CCC5)nc4c(F)c(-c5cc(O)cc6ccccc56)ncc34)CC2)CN1 [Example 81, 8-[8-fluoro-2-(1,2,3,5,6,7-hexahydropyrrolizin-8-ylmethoxy)-7-(3-hydroxy-1-naphthyl)pyrido[4,3-d]pyrimidin-4-yl]-2,8-diazaspiro[4.5]decan-3-one]
19 | 0.1 to 10 | 0.1 to 10 |  |  | 0.1 to 10 | 0.1 to 10 |  |  | Nc1cc2ccccc2c(-c2ncc3c(N4CCCOCC4)nc(OCC45CCCN4CCC5)nc3c2F)n1 [Example 91, 1-[8-fluoro-2-(1,2,3,5,6,7-hexahydropyrrolizin-8-ylmethoxy)-4-(1,4-oxazepan-4-yl)pyrido[4,3-d]pyrimidin-7-yl]isoquinolin-3-amine]
